In ChEMBL document CHEMBL3351249, “Potent cholesteryl ester transfer protein inhibitors of reduced lipophilicity: 1,1'-spiro-substituted hexahydrofuroquinoline derivatives” (J Med Chem, 2014):

Biological target: T1, Cholesteryl ester transfer protein (Homo sapiens, UniProt P11597)
T1 sequence (P11597 whole entry): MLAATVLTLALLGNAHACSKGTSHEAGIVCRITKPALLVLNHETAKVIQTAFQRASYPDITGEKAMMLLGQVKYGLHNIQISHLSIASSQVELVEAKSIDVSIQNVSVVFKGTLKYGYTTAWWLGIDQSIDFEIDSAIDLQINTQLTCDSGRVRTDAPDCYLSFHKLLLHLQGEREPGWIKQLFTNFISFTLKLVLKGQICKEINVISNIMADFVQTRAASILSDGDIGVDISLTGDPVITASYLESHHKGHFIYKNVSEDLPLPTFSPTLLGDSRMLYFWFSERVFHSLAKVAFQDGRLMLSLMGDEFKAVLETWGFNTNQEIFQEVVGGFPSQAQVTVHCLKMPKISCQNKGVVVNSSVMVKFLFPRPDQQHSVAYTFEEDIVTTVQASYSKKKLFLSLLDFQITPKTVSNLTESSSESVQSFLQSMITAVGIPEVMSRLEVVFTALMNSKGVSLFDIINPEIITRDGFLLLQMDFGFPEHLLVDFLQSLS
Assay: Inhibition of human recombinant CETP by fluorescence transfer assay

IC50: 796 nM
SMILES: CC(C)c1nc2c(c3c1[C@@H](c1ccc(F)cc1)OC31CCCC1)[C@@H](O)CC(C)(C)C2
